The values that follow come from patent US20180000085A1, “USE OF PICOLINAMIDE COMPOUNDS WITH FUNGICIDAL ACTIVITY” (DOW AGROSCIENCES LLC, priority 2014, published 2018).

Each structure is given as a SMILES string.

One assay has as its system Puccinia triticina. The assay is described as follows: Wheat brown rust (PUCCRT) disease control on wheat seedlings. The format is in vivo. Particulars: for PUCCRT 1DP disease control rating, LV activity at 125.1 g/H / PUCCRT 3DC disease control rating, LV activity at 125.1 g/H / PUCCRT 1DP, LV activity at 125.1 g/H (% Control rating) / PUCCRT 3DC, LV activity at 125.1 g/H (% Control rating) / LV activity at 125.1 g/H PUCCRT 1DP (disease control rating) / LV activity at 125.1 g/H PUCCRT 3DC (disease control rating): low volume application.

A further assay deals with Zymoseptoria tritici. The assay can be described thus: Leaf blotch of wheat (SEPTTR) disease control on wheat seedlings. Particulars: for SEPTTR 1DP disease control rating, LV activity at 125.1 g/H / SEPTTR 3DC disease control rating, LV activity at 125.1 g/H / SEPTTR 1DP, LV activity at 125.1 g/H (% Control rating) / SEPTTR 3DC, LV activity at 125.1 g/H (% Control rating) / LV activity at 125.1 g/H SEPTTR 1DP (disease control rating) / LV activity at 125.1 g/H SEPTTR 3DC (disease control rating): low volume application. The format is in vivo. The arrangement: key to SEPTTR 1DP, HV activity at 100 ppm (% control rating) / SEPTTR 3DC, HV activity at 100 ppm (% control rating) / SEPTTR disease control, 1DP / SEPTTR disease control, 3DC / SEPTTR 1DP disease control rating, HV activity / SEPTTR 3DC disease control rating, HV activity / SEPTTR 3DC, LV activity at 125.1 g/H (% Control rating) / SEPTTR 1DP, LV activity at 125.1 g/H (% Control rating) / SEPTTR 1DP disease control rating, LV activity at 125.1 g/H / SEPTTR 3DC disease control rating, LV activity at 125.1 g/H / SEPTTR 3DC disease control rating, HV activity at 100 ppm / SEPTTR 1DP disease control rating, HV activity at 100 ppm / HV activity at 100 ppm SEPTTR 3DC (disease control rating) / HV activity at 100 ppm SEPTTR 1DP (disease control rating) / LV activity at 125.1 g/H SEPTTR 1DP (disease control rating) / LV activity at 125.1 g/H SEPTTR 3DC (disease control rating): A: > 80; B: ≤ 80; C: Not Tested; D: No Activity Observed in the Reported Assay.

[1] abbreviates: high volume application, 100 ppm, 1 day protectant.
Setting [2] is: high volume application, 100 ppm, 3 day curative.
The mark [3] stands for this setting: 1 Day Protectant, wheat brown rust.
Where [4] appears, read: 3 Day Curative, wheat brown rust.
Where [5] appears, read: 1 Day Protectant, wheat leaf blotch.
[6] abbreviates: 3 Day Curative, wheat leaf blotch.

Regarding `COc1ccnc(C(=O)N[C@@H](C)C(=O)O[C@@H](C)[C@H](Oc2cccc(Cl)c2)C2CCCC2)c1O` [Cmpd 841, (S)-(1R,2S)-1-(3-chlorophenoxy)-1-cyclopentylpropan-2-yl-2-(3-hydroxy-4-methoxypicolinamido)propanoate], the “PUCCRT 1DP disease control rating, HV activity at 100 ppm” value with Puccinia triticina (setting [1]) was “A (> 80)”. The “PUCCRT 3DC disease control rating, HV activity at 100 ppm” value with Puccinia triticina (setting [2]) was “A (> 80)”. Also, the “SEPTTR 1DP disease control rating, HV activity at 100 ppm” value in the assay on Zymoseptoria tritici (setting [1]) is given as “A (> 80)”. Besides, in the assay with Zymoseptoria tritici (setting [2]), the “SEPTTR 3DC disease control rating, HV activity at 100 ppm” value was “A (> 80)”.

Turning to `CCCO[C@@H](C(C)C)[C@H](C)OC(=O)[C@H](C)NC(=O)c1nccc(OC)c1OCOC(C)=O` [Cmpd 850], in the assay on Puccinia triticina (1 day protectant), the “PUCCRT 1DP disease control rating, LV activity at 125.1 g/H” value is reported as “B (≤ 80)”. For the same compound, the “PUCCRT 3DC disease control rating, LV activity at 125.1 g/H” value in the assay on Puccinia triticina (3 day curative) is on record as “A (> 80)”. Moreover, the “SEPTTR 1DP disease control rating, LV activity at 125.1 g/H” value in the assay on Zymoseptoria tritici (1 day protectant) is given as “D”. Further, the “SEPTTR 3DC disease control rating, LV activity at 125.1 g/H” value in the assay on Zymoseptoria tritici (3 day curative) is reported as “B (≤ 80)”.

On to `COc1ccnc(C(=O)NC(C)C(=O)OC(C)C(OCC2CC2)C2CCCC2)c1OCOC(C)=O` (stereo not drawn) [Cmpd 914], for which the “PUCCRT 1DP disease control rating, LV activity at 125.1 g/H” value in the assay with Puccinia triticina (1 day protectant) is listed as “A (> 80)”. For the same compound, in the assay with Puccinia triticina (3 day curative), the “PUCCRT 3DC disease control rating, LV activity at 125.1 g/H” value was “A (> 80)”. Also, the “SEPTTR 1DP disease control rating, LV activity at 125.1 g/H” value in the assay with Zymoseptoria tritici (1 day protectant) was “B (≤ 80)”. Further, the “SEPTTR 3DC disease control rating, LV activity at 125.1 g/H” value with Zymoseptoria tritici (3 day curative) is “B (≤ 80)”.

As for `CCC(CC)[C@@H](Oc1ccc(Cl)cc1)[C@H](C)OC(=O)[C@@H](NC(=O)c1nccc(OC)c1OCOC(C)=O)C(C)C` [Cmpd 648], the “PUCCRT 1DP, LV activity at 125.1 g/H (% Control rating)” value (from here on “PUCCRT 1DP … (% Control rating)”) in the assay with Puccinia triticina (1 Day Protectant) was “A (> 80)”. In addition, the “PUCCRT 3DC, LV activity at 125.1 g/H (% Control rating)” value (“PUCCRT 3DC … (% Control rating)” below) with Puccinia triticina (3 Day Curative) was “B (≤ 80)”. Besides, the “SEPTTR 1DP, LV activity at 125.1 g/H (% Control rating)” value (shortened to “SEPTTR 1DP … (% Control rating)”) in the assay with Zymoseptoria tritici (1 Day Protectant) is given as “B (≤ 80)”. The “SEPTTR 3DC, LV activity at 125.1 g/H (% Control rating)” value (“SEPTTR 3DC … (% Control rating)” for short) in the assay on Zymoseptoria tritici (3 Day Curative) is “A (> 80)”.

Turning to `COc1ccnc(C(=O)N[C@@H](C)C(=O)O[C@@H](C)[C@@H](CC(C)C)Oc2cccc(F)c2)c1OC(C)=O` [Cmpd 1113], the “LV activity at 125.1 g/H PUCCRT 1DP (disease control rating)” value with Puccinia triticina (setting [3]) was “A (> 80)”. Besides, the “LV activity at 125.1 g/H PUCCRT 3DC (disease control rating)” value in the assay on Puccinia triticina (setting [4]) was “A (> 80)”. The “LV activity at 125.1 g/H SEPTTR 1DP (disease control rating)” value in the assay on Zymoseptoria tritici (setting [5]) is recorded as “A (> 80)”. In addition, the “LV activity at 125.1 g/H SEPTTR 3DC (disease control rating)” value in the assay with Zymoseptoria tritici (setting [6]) is “A (> 80)”.

With `COc1ccnc(C(=O)N[C@@H](C)C(=O)O[C@@H](C)[C@@H](CC(C)C)OCC(C)C)c1OC(C)=O` [Cmpd 1111], the “LV activity at 125.1 g/H PUCCRT 1DP (disease control rating)” value in the assay with Puccinia triticina (setting [3]) was “A (> 80)”. Moreover, the “LV activity at 125.1 g/H PUCCRT 3DC (disease control rating)” value in the assay on Puccinia triticina (setting [4]) was “A (> 80)”. Also, in the assay on Zymoseptoria tritici (setting [5]), the “LV activity at 125.1 g/H SEPTTR 1DP (disease control rating)” value is “B (≤ 80)”. The “LV activity at 125.1 g/H SEPTTR 3DC (disease control rating)” value in the assay with Zymoseptoria tritici (setting [6]) is given as “A (> 80)”.

`COc1ccnc(C(=O)N[C@@H](C)C(=O)O[C@@H](C)[C@@H](CC(C)C)Oc2cc(F)ccc2F)c1O` [Cmpd 1049]: in the assay with Puccinia triticina (HV application, 100 ppm, 1 Day Protectant, wheat brown rust), the “HV activity at 100 ppm PUCCRT 1DP (disease control rating)” value was “A (> 80)”. Besides, the “HV activity at 100 ppm PUCCRT 3DC (disease control rating)” value in the assay with Puccinia triticina (HV application, 100 ppm, 3 Day Curative, wheat brown rust) was “A (> 80)”. The “HV activity at 100 ppm SEPTTR 1DP (disease control rating)” value with Zymoseptoria tritici (HV application, 100 ppm, 1 Day Protectant, wheat leaf blotch) is “A (> 80)”. The “HV activity at 100 ppm SEPTTR 3DC (disease control rating)” value in the assay on Zymoseptoria tritici (HV application, 100 ppm, 3 Day Curative, wheat leaf blotch) is “B (≤ 80)”.

As for `CCC(CC)[C@@H](Oc1cccc(-c2ccccc2)c1)[C@H](C)OC(=O)[C@H](C)NC(=O)c1nccc(OC)c1OCOC(C)=O` [Cmpd 595], the “PUCCRT 1DP … (% Control rating)” value with Puccinia triticina (1 Day Protectant) is recorded as “A (> 80)”. The “PUCCRT 3DC … (% Control rating)” value with Puccinia triticina (3 Day Curative) is given as “B (≤ 80)”. The “SEPTTR 1DP … (% Control rating)” value in the assay with Zymoseptoria tritici (1 Day Protectant) is “A (> 80)”. For the same compound, in the assay on Zymoseptoria tritici (3 Day Curative), the “SEPTTR 3DC … (% Control rating)” value was “A (> 80)”.

As to `COc1ccnc(C(=O)N[C@@H](C)C(=O)O[C@@H](C)[C@H](Oc2ccc(Cl)cc2)c2ccccc2)c1OCOC(C)=O` [Cmpd 636], the “PUCCRT 1DP … (% Control rating)” value in the assay on Puccinia triticina (1 Day Protectant) was “A (> 80)”. Further, in the assay on Puccinia triticina (3 Day Curative), the “PUCCRT 3DC … (% Control rating)” value is listed as “A (> 80)”. The “SEPTTR 1DP … (% Control rating)” value in the assay on Zymoseptoria tritici (1 Day Protectant) is “A (> 80)”. Moreover, in the assay on Zymoseptoria tritici (3 Day Curative), the “SEPTTR 3DC … (% Control rating)” value is reported as “A (> 80)”.
